US20250313563A1, “GLYCOGEN SYNTHASE KINASE 3 INHIBITORS AND USES THEREOF” (The Broad Institute, Inc., priority 2022, published 2025)
Read-outs that look alike come from different tables or passages of the source.

Tests used:
[1] = target: GSK3α (GST-full length GSK3α) (Homo sapiens (Human), UniProt P49840); experiment: GSK3α TR-FRET kinase assay; assay type: biochemical
In short: (§1)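 Readout: anti-pSer641 Tb antibody/streptavidin-d2 signal after 60 min, expressed as 665/615 ratio and fitted versus log concentration for IC50. Enzyme: 1 nM GST-GSK3 (α or β), compound-preincubated 30 min. Conditions: pH 7.5 Tris buffer with MgCl2, DTT, BSA; ATP at 4 or 2 μM, or 1 mM; 100 min.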

[2] = target: GSK3b (GST-full length GSK3b) (Homo sapiens (Human), UniProt P49841); experiment: GSK3b TR-FRET kinase assay; assay type: biochemical
In short: as §1

[3] = 1 nM GSK3α, 4 μM ATP, 30 minute preincubation, read-out: GSK3-A TR-FRET BIOCHEMICAL (TR-FRET), IC50
[4] = 1 nM GSK3b, 2 μM ATP, 30 minute preincubation, read-out: GSK3-B TR-FRET BIOCHEMICAL (TR-FRET), IC50
[5] = 1 nM GSK3α, 4 μM ATP, 30 minute preincubation, Table 16, read-out: GSK3-A TR-FRET BIOCHEMICAL (TR-FRET)
[6] = 1 nM GSK3b, 2 μM ATP, 30 minute preincubation, Table 16, read-out: GSK3-B TR-FRET BIOCHEMICAL (TR-FRET)
[7] = read-out: GSK3-A (TR-FRET 1 mM ATP), GMean, IC50, 1 mM ATP, geometric mean
[8] = read-out: GSK3-B (TR-FRET 1 mM ATP), GMean, IC50, 1 mM ATP, geometric mean

GSK3b (GST-full length GSK3b), sequence (P49841 whole entry): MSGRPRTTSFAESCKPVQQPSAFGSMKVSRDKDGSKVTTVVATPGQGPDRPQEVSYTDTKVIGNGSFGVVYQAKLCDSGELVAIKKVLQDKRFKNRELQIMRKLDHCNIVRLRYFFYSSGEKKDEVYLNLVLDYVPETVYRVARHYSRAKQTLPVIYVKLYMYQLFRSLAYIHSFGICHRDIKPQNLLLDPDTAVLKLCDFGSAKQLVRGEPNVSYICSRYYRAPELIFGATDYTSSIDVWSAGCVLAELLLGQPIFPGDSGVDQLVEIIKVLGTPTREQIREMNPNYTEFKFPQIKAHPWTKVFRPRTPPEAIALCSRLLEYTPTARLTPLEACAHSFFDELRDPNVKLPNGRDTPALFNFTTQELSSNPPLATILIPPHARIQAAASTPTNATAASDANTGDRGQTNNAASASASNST
GSK3α (GST-full length GSK3α), sequence (P49840 whole entry): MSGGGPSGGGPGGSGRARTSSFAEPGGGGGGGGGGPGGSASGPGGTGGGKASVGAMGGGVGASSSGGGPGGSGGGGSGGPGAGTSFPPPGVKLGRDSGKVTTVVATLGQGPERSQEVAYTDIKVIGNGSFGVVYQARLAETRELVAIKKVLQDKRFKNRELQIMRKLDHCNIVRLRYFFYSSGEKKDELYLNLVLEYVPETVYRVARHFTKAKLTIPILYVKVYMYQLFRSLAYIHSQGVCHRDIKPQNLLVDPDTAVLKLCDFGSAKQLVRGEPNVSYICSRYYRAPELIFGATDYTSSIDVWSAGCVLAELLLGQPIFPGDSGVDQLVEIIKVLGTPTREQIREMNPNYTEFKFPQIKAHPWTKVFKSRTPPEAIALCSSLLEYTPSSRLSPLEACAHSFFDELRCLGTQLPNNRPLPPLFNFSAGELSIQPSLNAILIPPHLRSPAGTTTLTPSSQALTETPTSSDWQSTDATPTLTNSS

Row | IC50 [1, 3] | IC50 [2, 4] | IC50 [1, 5] | IC50 [2, 6] | IC50 [1, 7] | IC50 [2, 8] | Compound
1 | ≤ 0.1 µM | 0.1 to 1 µM |  |  |  |  | CCC1(c2cccc(-c3cnn(C)c3C)c2)C2=C(CC(C)(C)NC2=O)Nc2n[nH]c(C)c21 (stereo not shown) [Compound 944028]
2 |  |  | ≤ 0.1 µM | 0.1 to 1 µM |  |  | CCC1(c2cccc(-c3ccnc(C(C)O)c3)c2)C2=C(CC(C)(C)CC2=O)Nc2n[nH]cc21 (stereo not shown) [Compound 944029]
3 | ≤ 0.1 µM | ≤ 0.1 µM |  |  |  |  | CCC1(c2cccc(-c3cn(C)nc3C)c2)C2=C(CC(C)(C)NC2=O)Nc2n[nH]cc21 (stereo not shown) [Compound 944030]
4 |  |  | ≤ 0.1 µM | ≤ 0.1 µM |  |  | CC[C@]1(c2cccc(-c3ccnc4ccccc34)c2)C2=C(CC(C)(C)CC2=O)Nc2n[nH]cc21 [Compound 944031]
5 |  |  | ≤ 0.1 µM | ≤ 0.1 µM | 0.1 to 1 µM | 1 to 5 µM | CCC1(c2cccc(-c3cc(OC)ncc3F)c2)C2=C(CC(C)(C)CC2=O)Nc2n[nH]cc21 (stereo not shown) [Compound 944032]
6 |  |  | ≤ 0.1 µM | ≤ 0.1 µM | ≤ 0.1 µM | 0.1 to 1 µM | CCC1(c2cccc(-c3ccnc4c3CCCC4)c2)C2=C(CC(C)(C)CC2=O)Nc2n[nH]cc21 (stereo not shown) [Compound 944033]
7 |  |  | 1 to 5 µM | > 5 µM |  |  | CC[C@@]1(c2cccc(-c3cc(OC)ncc3F)c2)C2=C(CC(C)(C)CC2=O)Nc2n[nH]cc21 [Compound 944035]
8 |  |  | 1 to 5 µM | > 5 µM |  |  | CC[C@@]1(c2cccc(-c3ccnc4c3CCCC4)c2)C2=C(CC(C)(C)CC2=O)Nc2n[nH]cc21 [Compound 944036]
9 | ≤ 0.1 µM | 0.1 to 1 µM |  |  |  |  | CC1(C)CC(=O)C2=C(C1)Nc1n[nH]cc1C21COC2(CN(C(=O)C3CCC4(CC3)COC4)C2)C1 (stereo not shown) [Compound 944075]
10 |  |  | ≤ 0.1 µM | ≤ 0.1 µM | ≤ 0.1 µM | 0.1 to 1 µM | CCC1(c2cccc(N(C)c3nccc(C)n3)c2)C2=C(CC(C)(C)CC2=O)Nc2n[nH]cc21 (stereo not shown) [Compound 945328]
11 |  |  | 0.1 to 1 µM | 1 to 5 µM |  |  | CC[C@]1(c2cccc(N(C)c3nccc(C)n3)c2)C2=C(CC(C)(C)CC2=O)Nc2n[nH]cc21 [Compound 945329]
12 | 1 to 5 µM | > 5 µM |  |  |  |  | CCC1(c2cccc(C(F)(F)F)c2)C2=C(CC(c3ccccc3)NC2=O)Nc2n[nH]cc21 (stereo not shown) [Compound 945363]
13 | > 5 µM | > 5 µM |  |  |  |  | CC[C@]1(c2cccc(C(F)(F)F)c2)C2=C(C[C@H](c3ccccc3)NC2=O)Nc2n[nH]cc21 [Compound 945364]
14 | 0.1 to 1 µM | 1 to 5 µM |  |  |  |  | CCC1(c2cccc(C(F)(F)F)c2)C2=C(CN(C)C2=O)Nc2n[nH]cc21 (stereo not shown) [Compound 945367]
15 | > 5 µM | > 5 µM |  |  |  |  | CC[C@]1(c2cccc(C(F)(F)F)c2)C2=C(CN(C)C2=O)Nc2n[nH]cc21 [Compound 945368]
16 | > 5 µM | > 5 µM |  |  |  |  | CC[C@@]1(c2cccc(C(F)(F)F)c2)C2=C(CN(c3ccccc3)C2=O)Nc2n[nH]cc21 [Compound 945376]
17 | 0.1 to 1 µM | 1 to 5 µM |  |  |  |  | CCC1(c2cccc(C(F)(F)F)c2)C2=C(CN(c3ccccc3)C2=O)Nc2n[nH]cc21 (stereo not shown) [Compound 945377]
18 | ≤ 0.1 µM | 0.1 to 1 µM |  |  |  |  | CCC1(c2cccc(C(F)(F)F)c2)C2=C(Nc3n[nH]cc31)C(C)NC2=O (stereo not shown) [Compound 945378]
19 | 0.1 to 1 µM | 1 to 5 µM |  |  |  |  | CCC1(c2cccc(C(F)(F)F)c2)C2=C(Nc3n[nH]cc31)C(C)NC2=O (stereo not shown) [Compound 945379]
20 | > 5 µM | > 5 µM |  |  |  |  | CC[C@]1(c2cccc(C(F)(F)F)c2)C2=C(Nc3n[nH]cc31)[C@@H](C)NC2=O [Compound 945380]
21 | > 5 µM | > 5 µM |  |  |  |  | CC[C@]1(c2cccc(C(F)(F)F)c2)C2=C(Nc3n[nH]cc31)[C@H](C)NC2=O [Compound 945381]
22 | ≤ 0.1 µM | 0.1 to 1 µM |  |  |  |  | CCC1(c2cccc(C(F)(F)F)c2)C2=C(Nc3n[nH]cc31)C(C)CNC2=O (stereo not shown) [Compound 945382]
23 | ≤ 0.1 µM | 0.1 to 1 µM |  |  |  |  | CC[C@@]1(c2cccc(C(F)(F)F)c2)C2=C(Nc3n[nH]cc31)[C@H](C)CNC2=O [Compound 945383]
